Experimental data as given in ChEMBL document CHEMBL3627709, “Discovery of a Novel, Potent Spirocyclic Series of γ-Secretase Inhibitors” (J Med Chem, 2015).
The source made the active and inactive calls. The calls are words filed in the database; no cut-off is given here.

Legend:
Rattus norvegicus [1] = test: Antialzheimer activity in Sprague-Dawley rat assessed as reduction of total amylod beta level in plasma at 10 mg/kg, po after 3 hrs by immunoassay relative to vehicle-treated control; assay type: functional; design: scale not given: the % may be the effect or the level left
Cytochrome P450 2D6 [2] = molecular target: T1, Cytochrome P450 2D6 (Homo sapiens, UniProt P10635); test: Inhibition of CYP2D6 (unknown origin) preincubated with protein for 30 mins followed by substrate addition; assay type: ADME
T1 sequence (P10635 whole entry): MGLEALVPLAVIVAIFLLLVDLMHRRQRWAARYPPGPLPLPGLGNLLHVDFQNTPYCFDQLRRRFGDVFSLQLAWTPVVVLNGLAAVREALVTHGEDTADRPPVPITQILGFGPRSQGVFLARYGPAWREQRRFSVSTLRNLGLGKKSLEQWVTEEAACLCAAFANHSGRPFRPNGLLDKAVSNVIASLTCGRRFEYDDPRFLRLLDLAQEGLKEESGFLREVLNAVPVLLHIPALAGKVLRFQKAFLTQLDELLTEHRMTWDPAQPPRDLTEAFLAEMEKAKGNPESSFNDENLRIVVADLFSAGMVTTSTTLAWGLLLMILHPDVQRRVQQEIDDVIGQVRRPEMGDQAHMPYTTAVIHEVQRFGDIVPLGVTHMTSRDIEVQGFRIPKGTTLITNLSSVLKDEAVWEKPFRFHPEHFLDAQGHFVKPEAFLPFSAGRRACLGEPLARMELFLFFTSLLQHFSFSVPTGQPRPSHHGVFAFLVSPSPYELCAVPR

Cytochrome P450 2C9 [3] = molecular target: T2, Cytochrome P450 2C9 (Homo sapiens, UniProt P11712); test: Inhibition of CYP2C9 (unknown origin) preincubated with protein for 30 mins followed by substrate addition; assay type: ADME
T2 sequence (P11712 whole entry): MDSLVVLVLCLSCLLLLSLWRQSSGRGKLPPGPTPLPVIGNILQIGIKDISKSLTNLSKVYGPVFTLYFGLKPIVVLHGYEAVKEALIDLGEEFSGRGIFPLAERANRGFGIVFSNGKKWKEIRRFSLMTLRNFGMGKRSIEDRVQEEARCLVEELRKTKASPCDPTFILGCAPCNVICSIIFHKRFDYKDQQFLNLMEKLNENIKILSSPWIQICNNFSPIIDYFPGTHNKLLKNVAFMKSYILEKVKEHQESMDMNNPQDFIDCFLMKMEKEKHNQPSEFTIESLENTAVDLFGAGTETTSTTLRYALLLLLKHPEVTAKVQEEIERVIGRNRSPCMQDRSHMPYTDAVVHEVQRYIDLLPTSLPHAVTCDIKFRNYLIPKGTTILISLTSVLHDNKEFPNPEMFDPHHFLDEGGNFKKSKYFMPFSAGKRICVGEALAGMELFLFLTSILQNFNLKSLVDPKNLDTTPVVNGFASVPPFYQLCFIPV

[4] = Ratio of drug level in brain to plasma in Sprague-Dawley rat at 10 mg/kg, po; assay type: ADME, organism-based; details: brain and plasma, read-out: BPR
[5] = (§1) AUC (0 to 6 hrs) in Sprague-Dawley rat at 10 mg/kg, po by LC-MS/MS analysis; assay type: ADME, organism-based; design: time < 6 hr, dose 10 mg/kg, route oral; details: Sprague-Dawley, in vivo
Cytochrome P450 2D6 [6] = molecular target: T1, Cytochrome P450 2D6; test: Inhibition of CYP2D6 (unknown origin) co-incubated with substrate and protein; assay type: ADME
Cytochrome P450 2C9 [7] = molecular target: T2, Cytochrome P450 2C9; test: Inhibition of CYP2C9 (unknown origin) co-incubated with substrate and protein; assay type: ADME
Rattus norvegicus [8] = test: Antialzheimer activity in Sprague-Dawley rat assessed as reduction of total amylod beta level at 10 mg/kg, po after 3 hrs by immunoassay relative to vehicle-treated control; assay type: functional, organism-based
Cytochrome P450 3A4 [9] = molecular target: T3, Cytochrome P450 3A4 (Homo sapiens, UniProt P08684); test: Inhibition of CYP3A4 (unknown origin) co-incubated with substrate and protein; assay type: ADME
T3 sequence (P08684 whole entry): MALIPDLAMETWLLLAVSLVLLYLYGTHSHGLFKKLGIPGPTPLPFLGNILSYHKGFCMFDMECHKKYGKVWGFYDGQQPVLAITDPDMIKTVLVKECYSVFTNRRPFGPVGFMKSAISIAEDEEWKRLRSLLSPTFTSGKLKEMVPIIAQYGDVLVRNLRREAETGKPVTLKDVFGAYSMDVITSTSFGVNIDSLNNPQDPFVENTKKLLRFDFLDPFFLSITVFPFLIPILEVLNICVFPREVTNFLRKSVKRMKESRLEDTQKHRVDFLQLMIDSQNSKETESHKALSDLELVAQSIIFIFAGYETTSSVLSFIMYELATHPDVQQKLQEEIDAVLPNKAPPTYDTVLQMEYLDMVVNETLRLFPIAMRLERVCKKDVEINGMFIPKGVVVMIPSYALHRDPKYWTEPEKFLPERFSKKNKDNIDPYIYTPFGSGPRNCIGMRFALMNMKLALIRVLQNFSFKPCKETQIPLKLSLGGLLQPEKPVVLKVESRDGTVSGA

Cytochrome P450 3A4 [10] = molecular target: T3, Cytochrome P450 3A4; test: Inhibition of CYP3A4 (unknown origin) preincubated with protein for 30 mins followed by substrate addition; assay type: ADME
[11] = molecular target: Voltage-gated inwardly rectifying potassium channel KCNH2 (Homo sapiens, UniProt Q12809); test: Inhibition of human ERG
Sequence of Voltage-gated inwardly rectifying potassium channel KCNH2 (Q12809 whole entry): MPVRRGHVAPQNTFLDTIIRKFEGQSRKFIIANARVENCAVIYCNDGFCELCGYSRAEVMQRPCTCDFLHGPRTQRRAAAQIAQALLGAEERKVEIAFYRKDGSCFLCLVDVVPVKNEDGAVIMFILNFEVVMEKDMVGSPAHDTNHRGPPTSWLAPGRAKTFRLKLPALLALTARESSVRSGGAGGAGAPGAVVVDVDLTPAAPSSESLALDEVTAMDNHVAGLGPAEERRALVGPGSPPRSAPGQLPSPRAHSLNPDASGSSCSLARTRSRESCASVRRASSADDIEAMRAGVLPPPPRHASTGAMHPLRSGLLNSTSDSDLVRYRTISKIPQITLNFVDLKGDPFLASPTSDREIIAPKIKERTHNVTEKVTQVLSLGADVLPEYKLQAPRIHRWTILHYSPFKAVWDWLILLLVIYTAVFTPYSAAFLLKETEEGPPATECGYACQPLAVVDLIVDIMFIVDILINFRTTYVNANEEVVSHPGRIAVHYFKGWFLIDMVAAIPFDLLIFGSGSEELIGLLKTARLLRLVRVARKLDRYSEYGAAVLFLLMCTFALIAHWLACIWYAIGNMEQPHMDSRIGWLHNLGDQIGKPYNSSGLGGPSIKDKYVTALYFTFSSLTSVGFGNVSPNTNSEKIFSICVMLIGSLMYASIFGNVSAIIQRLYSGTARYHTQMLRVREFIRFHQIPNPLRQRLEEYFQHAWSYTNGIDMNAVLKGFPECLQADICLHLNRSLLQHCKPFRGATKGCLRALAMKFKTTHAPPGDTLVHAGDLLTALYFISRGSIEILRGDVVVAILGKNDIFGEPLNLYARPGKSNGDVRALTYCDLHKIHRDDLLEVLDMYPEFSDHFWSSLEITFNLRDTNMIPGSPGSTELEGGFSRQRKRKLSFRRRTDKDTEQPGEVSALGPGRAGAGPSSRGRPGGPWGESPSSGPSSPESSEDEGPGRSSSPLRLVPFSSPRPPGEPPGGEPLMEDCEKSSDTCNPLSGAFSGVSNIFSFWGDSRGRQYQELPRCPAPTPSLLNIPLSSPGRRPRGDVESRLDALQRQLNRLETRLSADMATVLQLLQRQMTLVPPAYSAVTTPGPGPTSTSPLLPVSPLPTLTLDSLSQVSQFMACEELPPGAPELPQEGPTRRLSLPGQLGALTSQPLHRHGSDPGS

Gamma-secretase [12] = test: Inhibition of gamma-secretase in HEK293 cell membranes using SPC99-Lon as substrate assessed as formation of amyloid beta 40 after 1 hr by electrochemiluminescence-based immunoassay; design: species or system Homo sapiens
Gamma-secretase [13] = test: Inhibition of gamma-secretase in HEK293 cells using human APP Swedish/London double mutant as substrate assessed as formation of amyloid beta 42 after 5 to 6 hrs by sandwich immunoassay; assay type: cell-based
Gamma-secretase [14] = test: Inhibition of gamma-secretase in HEK293 cells using human APP Swedish/London double mutant as substrate assessed as formation of amyloid beta 40 after 5 to 6 hrs by sandwich immunoassay; assay type: cell-based
Rattus norvegicus [15] = test: as §1; assay type: ADME, organism-based; design: time < 6 hr, dose 10 mg/kg, route oral; details: in vivo, 6 h, BLD = below limit of detection
Rattus norvegicus [16] = test: Antialzheimer activity in Sprague-Dawley rat assessed as reduction of total amylod beta level in cerebrospinal fluid at 10 mg/kg, po after 3 hrs by immunoassay relative to vehicle-treated control; assay type: functional; design: scale not given: the % may be the effect or the level left
Homo sapiens = organism: Homo sapiens; test: Selectivity ratio of IC50 for human presenilin-2 to IC50 for human presenilin-1

IC50 (Cytochrome P450 2D6 [2])	IC50 (Cytochrome P450 2C9 [3])	Kp [4]	AUC(0-t) at 6 h [5]	IC50 (Cytochrome P450 2D6 [6])	IC50 (Cytochrome P450 2C9 [7])	IC50 (Cytochrome P450 3A4 [9])	IC50 (Cytochrome P450 3A4 [10])	Ratio IC50 (Homo sapiens)	SMILES	Activity (Rattus norvegicus [1])	Activity (Rattus norvegicus [8])	inhibition (INH) [11]	IC50 (Gamma-secretase [12])	IC50 (Gamma-secretase [13])	IC50 (Gamma-secretase [14])	AUC (Rattus norvegicus [15])	Activity (Rattus norvegicus [16])
> 30 µM	< 0.3 µM	0.2	2.35 µM·h	> 30 µM	< 0.3 µM	–	–	–	O=S(=O)(N[C@H]1CC[C@@](c2cc(F)ccc2F)(S(=O)(=O)c2ccc(Cl)cc2)CC1)C(F)(F)F	71%	–	–	–	–	–	–	–
> 20 µM	> 20 µM	0.2	3.31 µM·h	> 20 µM	> 20 µM	> 20 µM	> 20 µM	–	O=S1(=O)CCC2(CCC[C@@]3(S(=O)(=O)c4ccc(Cl)cc4)c4c(F)ccc(F)c4OC[C@@H]23)CC1	–	inactive	Not Active	–	–	–	–	–
–	–	–	–	–	–	–	–	–	O=S(=O)(c1ccc(Cl)cc1)[C@@]12CCC[C@]3(CCOC3)[C@@H]1COc1c(F)ccc(F)c12 (stereo in doubt; (+)-14b)	–	–	–	142 nM	63 nM	104 nM	–	–
30 µM	4.9 µM	–	–	17.9 µM	2.5 µM	> 30 µM	21.4 µM	–	O=S(=O)(NC[C@@H]1OCC[C@@]2(S(=O)(=O)c3ccc(Cl)cc3)c3c(F)ccc(F)c3OC[C@@H]12)C(F)(F)F	–	–	–	–	–	–	–	–
–	–	–	–	–	–	–	–	–	O=S(=O)(c1ccc(Cl)cc1)[C@@]12CCCC3(COC3)[C@@H]1COc1c(F)ccc(F)c12	–	–	Not Active	10.1 nM	7 nM	13 nM	BLD	–
–	–	–	–	–	–	–	–	–	O=S(=O)(c1ccc(Cl)cc1)[C@@]12CCCC3(CCSCC3)[C@@H]1COc1c(F)ccc(F)c12	–	inactive	Not Active	26.4 nM	5 nM	17 nM	BLD	–
> 30 µM	< 0.3 µM	–	–	> 30 µM	< 0.3 µM	9.6 µM	3.5 µM	–	O=S(=O)(N[C@@H]1CC[C@@]2(S(=O)(=O)c3ccc(Cl)cc3)c3c(F)ccc(F)c3OC[C@H]2C1)C(F)(F)F	–	–	–	–	–	–	–	–
–	–	–	–	–	–	–	–	1	O=S(=O)(c1ccc(Cl)cc1)C1(c2cc(F)ccc2F)CCCCC1	–	inactive	–	14.1 nM	27 nM	41 nM	BLD	–
–	–	–	–	–	–	–	–	–	CC1(C)OCC2(CCC[C@@]3(S(=O)(=O)c4ccc(Cl)cc4)c4c(F)ccc(F)c4OC[C@@H]23)CO1	–	–	Not Active	66.6 nM	12 nM	33 nM	–	–
> 30 µM	21.1 µM	–	–	> 30 µM	23.4 µM	11 µM	11.5 µM	–	O=S(=O)(c1ccc(Cl)cc1)[C@@]12CCCC(CO)(CO)[C@@H]1COc1c(F)ccc(F)c12	–	–	Not Active	251 nM	–	–	–	–

SMILES	IC50 (Cytochrome P450 2D6 [2])	IC50 (Cytochrome P450 2C9 [3])	Kp [4]	AUC(0-t) at 6 h [5]	IC50 (Cytochrome P450 2D6 [6])	IC50 (Cytochrome P450 2C9 [7])	IC50 (Cytochrome P450 3A4 [9])	IC50 (Cytochrome P450 3A4 [10])	Ratio IC50 (Homo sapiens)	Activity (Rattus norvegicus [1])	Activity (Rattus norvegicus [8])	inhibition (INH) [11]	IC50 (Gamma-secretase [12])	IC50 (Gamma-secretase [13])	IC50 (Gamma-secretase [14])	AUC (Rattus norvegicus [15])	Activity (Rattus norvegicus [16])
O=S(=O)(N1CC[C@]2(CCC[C@@]3(S(=O)(=O)c4ccc(Cl)cc4)c4c(F)ccc(F)c4OC[C@@H]23)C1)C(F)(F)F	> 30 µM	> 30 µM	–	–	> 30 µM	> 30 µM	> 30 µM	> 20 µM	–	–	–	Not Active	23.3 nM	8 nM	13 nM	–	–
O=S(=O)(c1ccc(Cl)cc1)[C@@]12CCC[C@]3(CCOC3)[C@@H]1COc1c(F)ccc(F)c12 (stereo in doubt; (-)-14b)	> 20 µM	> 20 µM	–	–	> 20 µM	> 20 µM	> 20 µM	> 20 µM	–	29%	–	Not Active	13.9 nM	3 nM	6 nM	–	10%
O=C1OCC[C@]12CCC[C@@]1(S(=O)(=O)c3ccc(Cl)cc3)c3c(F)ccc(F)c3OC[C@@H]21	> 30 µM	> 30 µM	–	–	> 30 µM	> 30 µM	> 30 µM	> 30 µM	–	–	–	Not Active	228 nM	–	–	–	–
